# Experimental data taken from US20230357419A1, “METHODS FOR TREATING OR […] DISORDERS” (priority 2022, published 2023).
# Columns and labels:
# C57BL/6J mice = assay: Repeated nitroglycerin (NTG) administration-induced behavioral sensitization: facial mechanical thresholds (von Frey), hyperalgesic priming, facial pain score; format: in vivo, mouse; conditions: female C57BL/6J
# Method: Repeated nitroglycerin (NTG) administration-induced behavioral sensitization: To model chronic migraine headache, mice received repetitive intraperitoneal (i.p.) injections of nitric oxide (NO) donor NTG (10 mg/kg and 10 ml/kg in saline with 1% propylene glycol) once every 2 days for 5 times as described previously. The control mice received vehicle (saline with 1% propylene glycol, 10 ml/kg) injections every 2 days. Facial mechanical thresholds were measured at baseline and two days after each injection (before the next treatment). After the facial mechanical threshold returned to the baseline level, mice received daily i.p. injections of low-dose NTG (0.1 mg/kg). Facial mechanical thresholds were measured every 2 days to assess hyperalgesic priming.
# The hair on the mouse forehead (above and between the eyes) was shaved the day before testing. […] A positive response was determined by the following criteria as previously described: mouse vigorously stroked its face with the forepaw, head withdrawal from the stimulus, or head shaking. […]
# Facial pain score—aversiveness to facial mechanical stimuli: To measure the aversiveness to facial mechanical stimuli, the responses of mice to individual von Frey filaments were scored based on the most aversive behavior they display: 0) no responses; 1) detection: eye squinting, facial skin crinkling and/or a small head shaking; 2) withdrawal: head withdrawal from the filament and/or forepaw stroking of face once; 3) vigorous forepaw stroking of face 2 or more times; and 4) vigorous head shaking and/or attacking the filament.
# For C57BL/6J mice, responses were measured to 0.04 gram (g), 0.07 g and 0.16 g von Frey filaments (3 applications each in ascending order). […]
# Mice received intraperitoneal (i.p.) injections of NTG (10 mg/kg) or vehicle (saline with 1% propylene glycol, 10 ml/kg) once every 2 days for 5 times as described previously. Facial mechanical thresholds were measured at baseline and two days after each injection. […]
# mice = conditions: intrathecal, 3 μg; cited from earlier work
structure (smiles),measurement,setting,value
Cc1ccc2c(c1)C1(CCN(CCc3nc(-c4ccccc4)oc3C)CC1)OC(=O)N2 [RS504393],NTG-induced acute or persistent facial skin hypersensitivity,"C57BL/6J mice; 3 μg in 10 μl under periorbital skin, 30 minutes before and 24 hours post-NTG",did not reduce NTG-induced acute or persistent facial skin hypersensitivity
same,facial mechanical threshold (NTG-induced persistent facial skin hypersensitivity),"C57BL/6J mice; 3 mg/kg i.p., 8 daily injections started after established hypersensitivity, day 5-11",returned to basal level after 2 days of RS504393 treatment
same,hyperalgesic priming (low-dose NTG-induced facial skin hypersensitivity),"C57BL/6J mice; 3 mg/kg i.p., 8 daily injections, low-dose NTG day 20-28",low-dose NTG injections still produced robust facial skin hypersensitivity
same,tibial fracture/cast immobilization-induced mechanical allodynia,mice,significantly attenuated tibial fracture/cast immobilization-induced mechanical allodynia
